What was measured:
[1] = tested on: Human gastric cancer cells (NCI-N87); assay: Antitumor effect in subcutaneous transplantation model of human gastric cancer cell line NCI-N87; format: in vivo, nude mice; settings: for anti-tumor effect versus comparative compounds 6 and 7 at the same dose (RTV on day 15): 2 mg/kg/day oral for all compounds, Student-t test; for inhibition of tumor growth (relative tumor volume, FIG. 1): 2 mg/kg/day orally once per day for 14 days, nude mice, NCI-N87; for anti-tumor effect versus comparative compounds 6 and 7 at increased dose (RTV): Examples at 2 mg/kg/day oral, comparative compounds 6 and 7 at 10 mg/kg/day
Method: Human gastric cancer cells (NCI-N87) (obtained from ATCC) were subcutaneously transplanted in nude mice, and at the time when the tumor volume of the nude mice in which the cancer cells had been survived became approximately 140 to 210 mm^3, stratified randomization was performed so that the average tumor volume of each group (6 animals were assigned to one group (grouping: on day 0)) became uniform. The compounds 1, 6, and 9 of the present invention and the comparative compounds 6 (the compound of Example 21 in WO 2010/106290) and 7 (the compound of Example 1 in WO 2010/106290) were orally administered daily once per day from day 1 for 14 days. Note that the comparative compounds were synthesized according to the method described in WO 2010/106290 (Table 22).
The doses of 2 mg/kg/day and 10 mg/kg/day were used for the comparative compounds 6 and 7, and the dose of 2 mg/kg/day was used for the compounds of Examples of 1, 6, and 9 of the present invention.
In order to compare the transition over time of the tumor growth in the administration of each test compound, the relative tumor volume (RTV) was calculated according to the following equation when the tumor volume on the grouping day was defined as 1 for the growth rate of tumor, and the transition of the average value of the RTV of each individual was shown in FIG. 1. RTV=(Tumor volume on tumor volume measurement day)/(Tumor volume when grouped) (Mathematical Formula 1)

SK-BR-3 cells = assay: Measurement of cell growth inhibition (crystal violet staining); format: cell-based; settings: Homo sapiens, 72 hours culture with test substance
Method: Cell growth was measured by a crystal violet staining method. […] The cells were cultured in a 5% CO2 incubator at 37° C. for 24 hours, and then test substances were added to the plate, followed by culturing for further 72 hours. […] The plate was left to stand at room temperature for 20 minutes for staining the cells. The plate was washed with water and dried, and 100 μL of a mixed solution of 0.05 M NaH2PO4 and ethanol (mixture in equal amounts) was added to each well. The absorbance at 540 nm was measured with a microplate reader (MTP-450, Corona Electric Co., Ltd.) as an index of the number of cells in each well. The inhibition rate (%) of cell growth by a compound of the present invention was determined by the following equation using the absorbance of a drug-untreated group (control) as a control. […] Inhibition rate (%)=(C−T)/C×100 T: absorbance in a well to which a test substance was added C: absorbance in a well to which no test substance was added

[2] = target: human HSP90 alpha protein (N-terminal, amino acids 2-236) (Homo sapiens (Human), UniProt P07900); assay: Measurement of HSP90-binding activity (AlphaScreen competitive assay, biotin-labeled geldanamycin); settings: inhibition of biotin-labeled geldanamycin binding to purified HSP90; read-out: HSP-binding activity IC50
Method: First, a solution of purified HSP90 was prepared as follows. […] The pET-HSP90N was introduced into Escherichia coli cells (BL21 (DE3), Stratagene Inc.), and then the Escherichia coli cells were cultured in the presence of 0.5 mM isopropyl-beta-D-thiogalactopyranoside (Sigma-Aldrich Corp.) at 37° C. for 4 hours. The Escherichia coli cells were collected, suspended in a lysis buffer (50 mM Tris-HCl (pH 7.5), 200 mM NaCl), and sonicated. The sonicated cell solution was centrifuged (40,000×g, 20 minutes) to obtain supernatant as a crude extract. The crude extract was fractionated by Ni Sepharose High Performance (GE Healthcare Japan Corporation) chromatography and HiLoad 26/60 Superdex 75 pg (GE Healthcare Japan Corporation), and the fraction in which HSP90 protein was concentrated was prepared so as to be a 50 mM Tris-HCl (pH 7.5)/20% glycerol solution as a purified HSP90 solution. The purified HSP90 solution was divided and stored at −80° C. until use.
The HSP90-binding activity was measured by an AlphaScreen competitive assay system. […] After reaction at room temperature for 2 hours, biotin-labeled geldanamycin was added to each reaction solution in an amount of 40 nM, followed by reaction for further 1 hour. […] After reaction in a dark place at room temperature for 1 hour, the fluorescence intensity in each well was measured with a multilabel plate reader, EnVision (Perkin Elmer, Inc.). The inhibition rate (%) of biotin-labeled geldanamycin binding by a compound of the present invention was determined by the following equation using the fluorescence signal of a test substance-free group (control) as a control. […] Inhibition rate (%)=(C−T)/C×100 T: signal in a well to which a test substance was added C: signal in a well to which no test substance was added

SMILES	anti-tumor effect versus comparative compounds 6 and 7 at the same dose (RTV on day 15) [1]	inhibition of tumor growth (relative tumor volume, FIG. 1) [1]	anti-tumor effect versus comparative compounds 6 and 7 at increased dose (RTV) [1]	IC50 (SK-BR-3 cells) [nM]	IC50 [2] [nM]
CC(C)c1nn(-c2ccc(C(N)=O)c(NC(C)(C)C)c2)c2cccc(-n3cnc(-c4cnn(C)c4)c3)c12 [Example 9, 2-(Tert-butylamino)-4-(3-isopropyl-4-(4-(1-methyl-1H-pyrazol-4-yl)-1H-imidazol-1-yl)-1H-indazol-1-yl)benzamide]	significantly stronger anti-tumor effects than the comparative compounds 6 and 7	inhibited the tumor growth within one week from the start of the administration	significantly stronger anti-tumor effect than any of the comparative compounds 6 and 7	10	260
Cc1cc(C(N)=O)ccc1-n1nc(C(C)C)c2c(-n3cnc(-c4cccnc4)c3)cccc21 [Example 4, 4-(3-Isopropyl-4-(4-(pyridin-3-yl)-1H-imidazol-1-yl)-1H-indazol-1-yl)-3-methylbenzamide]	–	–	–	140	160
CC(C)c1nn(-c2ccc(C(N)=O)cc2NC2CCC2)c2cccc(-n3cnc(-c4cnn(C)c4)c3)c12 [Example 13, 3-(Cyclobutylamino)-4-(3-Isopropyl-4-(4-(1-methyl-1H-pyrazol-4-yl)-1H-imidazol-1-yl)-1H-indazol-1-yl)benzamide]	–	–	–	60	200
CC(C)c1cn(-c2ccc(C(N)=O)c(NC(C)(C)C)c2)c2cccc(-n3cnc(-c4cnn(C)c4)c3)c12 [Example 52, 2-(Tert-butylamino)-4-{3-isopropyl-4-(4-(1-methyl-1H-pyrazolo-4-yl)-1H-imidazolo-1-yl)-1H-indol-1-yl}benzamide]	–	–	–	20	420
CC(C)(C)Nc1cc(-n2nc(C(F)(F)F)c3c(-n4cnc(-c5cccnc5)c4)cccc32)ccc1C(N)=O [Example 16, 2-(Tert-butylamino)-4-(4-(4-(pyridin-3-yl)-1H-imidazol-1-yl)-3-(trifluoromethyl)-1H-indazol-1-yl)benzamide]	–	–	–	30	290
NC(=O)c1ccc(-n2nc(C(F)(F)F)c3c(-n4cnc(-c5cccnc5)c4)cccc32)c(NC2CCC2)c1 [Example 23, 3-(Cyclobutylamino)-4-(4-(4-(pyridin-3-yl)-1H-imidazol-1-yl)-3-(trifluoromethyl)-1H-indazol-1-yl)benzamide]	–	–	–	170	280
Cn1cc(-c2cn(-c3cccc4c3c(C(F)(F)F)nn4-c3ccc(C(N)=O)c(NC(C)(C)C)c3)cn2)cn1 [Example 14, 2-(Tert-butylamino)-4-(4-(4-(1-methyl-1H-pyrazol-4-yl)-1H-imidazol-1-yl)-3-(trifluoromethyl)-1H-indazol-1-yl)benzamide]	–	–	–	10	270
CC(C)c1nn(-c2ccc(C(N)=O)c(NC(C)(C)C)c2)c2cccc(-n3cnc(-c4cccnc4)c3)c12 [Example 1, 2-(Tert-butylamino)-4-(3-isopropyl-4-(4-(pyridin-3-yl)-1H-imidazol-1-yl)-1H-indazol-1-yl)benzamide]	significantly stronger anti-tumor effects than the comparative compounds 6 and 7	inhibited the tumor growth within one week from the start of the administration	significantly stronger anti-tumor effect than any of the comparative compounds 6 and 7	20	170
CC(C)Nc1cc(C(N)=O)ccc1-n1nc(C(C)C)c2c(-n3cnc(-c4cnn(C)c4)c3)cccc21 [Example 12, 4-(3-Isopropyl-4-(4-(1-methyl-1H-pyrazol-4-yl)-1H-imidazol-1-yl)-1H-indazol-1-yl)-3-(isopropylamino)benzamide]	–	–	–	60	120
CCc1cc(C(N)=O)ccc1-n1nc(C(F)(F)F)c2c(-n3cnc(-c4cccnc4)c3)cccc21 [Example 19, 3-Ethyl-4-(4-(4-(pyridin-3-yl)-1H-imidazol-1-yl)-3-(trifluoromethyl)-1H-indazol-1-yl)benzamide]	–	–	–	100	170
CC(C)c1nn(-c2ccc(C(N)=O)cc2Cl)c2cccc(-n3cnc(-c4cccnc4)c3)c12 [Example 3, 3-Chloro-4-(3-isopropyl-4-(4-(pyridin-3-yl)-1H-imidazol-1-yl)-1H-indazol-1-yl)benzamide]	–	–	–	560	740
Cc1cc(C(N)=O)ccc1-n1nc(C(F)(F)F)c2c(-n3cnc(-c4cccnc4)c3)cccc21 [Example 17, 3-Methyl-4-(4-(4-(pyridin-3-yl)-1H-imidazol-1-yl)-3-(trifluoromethyl)-1H-indazol-1-yl)benzamide]	–	–	–	300	490
CC(C)Nc1cc(C(N)=O)ccc1-n1nc(C(C)C)c2c(-n3cnc(-c4cccnc4)c3)cccc21 [Example 10, 4-(3-Isopropyl-4-(4-(pyridin-3-yl)-1H-imidazol-1-yl)-1H-indazol-1-yl)-3-(isopropylamino)benzamide]	–	–	–	100	250
Cn1cc(-c2cn(-c3cccc4c3c(C(F)(F)F)nn4-c3ccc(C(N)=O)cc3NC3CCC3)cn2)cn1 [Example 21, 3-(Cyclobutylamino)-4-(4-(4-(1-methyl-1H-pyrazol-4-yl)-1H-imidazol-1-yl)-3-(trifluoromethyl)-1H-indazol-1-yl)benzamide]	–	–	–	70	150
CCc1cc(C(N)=O)ccc1-n1nc(C(F)(F)F)c2c(-n3cnc(-c4cnn(C)c4)c3)cccc21 [Example 18, 3-Ethyl-4-(4-(4-(1-methyl-1H-pyrazol-4-yl)-1H-imidazol-1-yl)-3-(trifluoromethyl)-1H-indazol-1-yl)benzamide]	–	–	–	50	90
CC(C)c1nn(-c2ccc(C(N)=O)cc2NC2CCC2)c2cccc(-n3cnc(-c4cccnc4)c3)c12 [Example 11, 3-(Cyclobutylamino)-4-(3-isopropyl-4-(4-(pyridin-3-yl)-1H-imidazol-1-yl)-1H-indazol-1-yl)benzamide]	–	–	–	80	300
CC(C)Nc1cc(C(N)=O)ccc1-n1nc(C(F)(F)F)c2c(-n3cnc(-c4cccnc4)c3)cccc21 [Example 22, 3-(Isopropylamino)-4-(4-(4-(pyridin-3-yl)-1H-imidazol-1-yl)-3-(trifluoromethyl)-1H-indazol-1-yl)benzamide]	–	–	–	120	140
CC(C)c1nn(-c2ccc(C(N)=O)cc2Cl)c2cccc(-n3cnc(-c4cnn(C)c4)c3)c12 [Example 5, 3-Chloro-4-(3-isopropyl-4-(4-(1-methyl-1H-pyrazol-4-yl)-1H-imidazol-1-yl)-1H-indazol-1-yl)benzamide]	–	–	–	270	240
CCc1cc(C(N)=O)ccc1-n1cc(C(C)C)c2c(-n3cnc(-c4cnn(C)c4)c3)cccc21 [Example 51, 3-Ethyl-4-{3-isopropyl-4-(4-(1-methyl-1H-pyrazolo-4-yl)-1H-imidazolo-1-yl)-1H-indol-1-yl}benzamide]	–	–	–	60	160
